This note sets out measurements from patent publication US11000033B2, “Ketone or oxime compound, and herbicide” (NISSAN CHEMICAL CORPORATION, priority 2014, dated 2021).

What all share (type): in vivo
Series [1] relates to Abutilon theophrasti. Nature of the series: Test Example 5: herbicidal effect by foliage application, plastic box (symbol M). Particulars: 320 g/ha, 3 weeks after application. Summed up:
(§1)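 Sowing in sterilized diluvial soil, 14 days' greenhouse growth at 25° C. to 30° C., then uniform small-sprayer foliar application of aqueous emulsion dilution; plants scored three weeks afterwards.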

The test system of series [2] is Digitaria ciliaris. Nature of the series: Test Example 4: herbicidal effect by soil treatment (symbol F). Conditions: application herbicide amount 320 g/ha. Summed up:
(§2)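 Seeds were sown in sterilized diluvial soil, covered with about 1.5 cm of soil, and the soil surface was sprayed with a water-diluted emulsion of the compound at a predetermined rate. Plants grew in a greenhouse at 25° C. to 30° C.; effects were scored visually 3 weeks after application.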

Series [3] concerns Digitaria ciliaris. Nature of the series: Test Example 5: herbicidal effect by foliage application, plastic box (symbol F). Particulars: 320 g/ha, 3 weeks after application. Summed up:
as §1

The test system of another series is Avena fatua. Nature of the series: Test Example 4: herbicidal effect by soil treatment (symbol I). Conditions: application herbicide amount 320 g/ha. An outline of the steps: as §2
In series [4] the test system is Echinochloa oryzacola Vasing. Nature of the series: Test Example 2: herbicidal activity, application during weed generation in submerged conditions (symbol A). Conditions: Table 23; application herbicide amount 320 g/ha; grade 0-5 by criteria of Test Example 1. Summed up: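 Steps: fill pots with alluvial soil; add water to 4 cm depth; co-sow the three weeds; grow at 25° C. to 30° C. under glass; at 1–2 leaves, dose the floodwater with diluted emulsion; rate damage visually after 3 weeks.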

For the next series, the system named is Apera spica-venti. Nature of the series: Test Example 5: herbicidal effect by foliage application, plastic box (symbol L). Conditions: 320 g/ha, 3 weeks after application. An outline of the steps:
as §1

For the next series, the system named is Alopecurus myosuroides. Nature of the series: Test Example 4: herbicidal effect by soil treatment (symbol J). Particulars: application herbicide amount 320 g/ha. An outline of the steps: as §2
For a further series, the system named is Amaranthus retroflexus. Nature of the series: Test Example 5: herbicidal effect by foliage application, plastic box (symbol N). Conditions: 320 g/ha, 3 weeks after application. An outline of the steps: as §1
Another series has as its system soybean. Nature of the series: Test Example 5: effect on crop by foliage application, plastic box (symbol d). Conditions: 320 g/ha, 3 weeks after application. An outline of the steps: (§3)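 Box culture: sterile diluvial soil, seeds spot-sown, ~1.5 cm cover, raised under glass at 25–30° C.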
The test system of series [5] is Veronica persica. Nature of the series: Test Example 4: herbicidal effect by soil treatment (symbol R). Conditions: application herbicide amount 320 g/ha. An outline of the steps:
as §2

The subject of series [6] is beet. Nature of the series: Test Example 5: effect on crop by foliage application, plastic box (symbol f). Particulars: 320 g/ha, 3 weeks after application. Summed up: as §3
Series [7] deals with Abutilon theophrasti. Nature of the series: Test Example 4: herbicidal effect by soil treatment (symbol M). Particulars: application herbicide amount 320 g/ha. An outline of the steps:
as §2

In series [8] the test system is Echinochloa crus-galli var. crus-galli. Nature of the series: Test Example 3: herbicidal effect by foliage application, Wagner pot (symbol H). Conditions: application herbicide amount 320 g/ha. Summed up:
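Post-emergence, paddy-type test: seedlings 14 d old in shallow-flooded (0.1–0.5 cm) alluvial soil, 25–30 °C greenhouse. Emulsion diluted to target rate, sprayed on leaves. Read-out: visual effect on each species at 3 weeks, per set criteria.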

For series [9], the system named is beet. Nature of the series: Test Example 4: effect on crop by soil treatment (symbol f). Particulars: application herbicide amount 320 g/ha. An outline of the steps: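 Seeds were sown in spots on sterilized diluvial soil in a plastic box and covered with about 1.5 cm of soil. Plants were then grown in a greenhouse at 25° C. to 30° C.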
Series [10] relates to Veronica persica. Nature of the series: Test Example 5: herbicidal effect by foliage application, plastic box (symbol R). Conditions: 320 g/ha, 3 weeks after application. Summed up:
as §1

The next series concerns rice plant. Nature of the series: Test Example 5: effect on crop by foliage application, plastic box (symbol b). Conditions: 320 g/ha, 3 weeks after application. An outline of the steps:
as §3

In the case of `CC(CC1CC(O)=C(c2c(C)cc(C)cc2C)C1=O)=NOc1ccccc1` (stereo not shown) [1-057], the “M: Abutilon theophrasti, herbicidal effect grade” value (“M: Abutilon theophrasti” below) in the series on Abutilon theophrasti [1] is 1 (Herbicidal ratio of 5% or higher and lower than 20%). Further, in the series with Digitaria ciliaris [2], the “F (Digitaria ciliaris) herbicidal effect grade” value was 4 (Herbicidal ratio of 70% or higher and lower than 90%). Further, in the series on Digitaria ciliaris [3], the “F: Digitaria ciliaris, herbicidal effect grade” value (shortened to “F: Digitaria ciliaris”) is 3 (Herbicidal ratio of 40% or higher and lower than 70%). The “I (Avena fatua) herbicidal effect grade” value in the series on Avena fatua was 0 (Herbicidal ratio of 5% or lower (almost no effect)). Besides, the “Herbicidal effect grade, A: Echinochloa oryzacola Vasing.” value in series [4] is 2 (Herbicidal ratio of 20% or higher and lower than 40%). Besides, the “L: Apera spica-venti, herbicidal effect grade” value (shortened to “L: Apera spica-venti”) with Apera spica-venti is 1 (Herbicidal ratio of 5% or higher and lower than 20%). Further, the “J (Alopecurus myosuroides) herbicidal effect grade” value with Alopecurus myosuroides was 4 (Herbicidal ratio of 70% or higher and lower than 90%). Also, the “N: Amaranthus retroflexus, herbicidal effect grade” value (from here on “N: Amaranthus retroflexus”) in the series on Amaranthus retroflexus is recorded as 0 (Herbicidal ratio of 5% or lower (almost no effect)). The “d: soybean, effect on crop grade” value in the series on soybean was 3 (Herbicidal ratio of 40% or higher and lower than 70%). Also, in the series with Veronica persica [5], the “R (Veronica persica) herbicidal effect grade” value was 0 (Herbicidal ratio of 5% or lower (almost no effect)). The “f: beet, effect on crop grade” value in the series on beet [6] was 1 (Herbicidal ratio of 5% or higher and lower than 20%). The “M (Abutilon theophrasti) herbicidal effect grade” value in the series with Abutilon theophrasti [7] is 3 (Herbicidal ratio of 40% or higher and lower than 70%). Also, in [8], the “herbicidal effect on H (Echinochloa crus-galli var. crus-galli), grade 0-5” value (from here on “herbicidal effect on H”) was 4 (Herbicidal ratio of 70% or higher and lower than 90%). Further, the “f (beet) effect on crop grade” value in the series with beet [9] is listed as 0 (Herbicidal ratio of 5% or lower (almost no effect)). In addition, the “R: Veronica persica, herbicidal effect grade” value (from here on “R: Veronica persica”) with Veronica persica [10] is listed as 0 (Herbicidal ratio of 5% or lower (almost no effect)). Moreover, in the series on rice plant, the “b: directly sowed rice plant, effect on crop grade” value (“b: directly sowed rice plant” below) was 3 (Herbicidal ratio of 40% or higher and lower than 70%).

In the case of `CON=C(C)CC1CC(OC(=O)C(C)Oc2ccccc2)=C(c2c(C)cc(C)cc2C)C1=O` (stereo not shown) [1-060], the “M: Abutilon theophrasti” value in the series with Abutilon theophrasti [1] is 3 (Herbicidal ratio of 40% or higher and lower than 70%). For the same compound, in the series with Digitaria ciliaris [2], the “F (Digitaria ciliaris) herbicidal effect grade” value is recorded as 5 (Herbicidal ratio of 90% or more (almost completely withered)). The “F: Digitaria ciliaris” value in the series with Digitaria ciliaris [3] is recorded as 5 (Herbicidal ratio of 90% or more (almost completely withered)). Further, in the series on Avena fatua, the “I (Avena fatua) herbicidal effect grade” value was 3 (Herbicidal ratio of 40% or higher and lower than 70%). Besides, the “Herbicidal effect grade, A: Echinochloa oryzacola Vasing.” value in [4] is on record as 5 (Herbicidal ratio of 90% or more (almost completely withered)). For the same compound, the “L: Apera spica-venti” value in the series on Apera spica-venti is given as 5 (Herbicidal ratio of 90% or more (almost completely withered)). Further, in the series with Alopecurus myosuroides, the “J (Alopecurus myosuroides) herbicidal effect grade” value is on record as 5 (Herbicidal ratio of 90% or more (almost completely withered)). In addition, the “N: Amaranthus retroflexus” value in the series with Amaranthus retroflexus is on record as 0 (Herbicidal ratio of 5% or lower (almost no effect)). The “d: soybean, effect on crop grade” value with soybean was 4 (Herbicidal ratio of 70% or higher and lower than 90%). In addition, in the series with Veronica persica [5], the “R (Veronica persica) herbicidal effect grade” value is given as 0 (Herbicidal ratio of 5% or lower (almost no effect)). For the same compound, the “f: beet, effect on crop grade” value with beet [6] is given as 0 (Herbicidal ratio of 5% or lower (almost no effect)). Besides, the “M (Abutilon theophrasti) herbicidal effect grade” value with Abutilon theophrasti [7] was 4 (Herbicidal ratio of 70% or higher and lower than 90%). In series [8], the “herbicidal effect on H” value was 5 (Herbicidal ratio of 90% or more (almost completely withered)). Also, the “f (beet) effect on crop grade” value with beet [9] was 0 (Herbicidal ratio of 5% or lower (almost no effect)). Further, in the series with Veronica persica [10], the “R: Veronica persica” value was 3 (Herbicidal ratio of 40% or higher and lower than 70%). In the series on rice plant, the “b: directly sowed rice plant” value is 5 (Herbicidal ratio of 90% or more (almost completely withered)).

For the compound `CCCC(CC1CC(O)=C(c2c(C)cc(C)cc2C)C1=O)=NOC` (stereo not shown) [1-062], in the series with Abutilon theophrasti [1], the “M: Abutilon theophrasti” value was 0 (Herbicidal ratio of 5% or lower (almost no effect)). In addition, the “F (Digitaria ciliaris) herbicidal effect grade” value in the series with Digitaria ciliaris [2] is 5 (Herbicidal ratio of 90% or more (almost completely withered)). Further, in the series with Digitaria ciliaris [3], the “F: Digitaria ciliaris” value was 1 (Herbicidal ratio of 5% or higher and lower than 20%). In addition, the “I (Avena fatua) herbicidal effect grade” value with Avena fatua was 0 (Herbicidal ratio of 5% or lower (almost no effect)). For the same compound, the “Herbicidal effect grade, A: Echinochloa oryzacola Vasing.” value in series [4] is 3 (Herbicidal ratio of 40% or higher and lower than 70%). Also, the “L: Apera spica-venti” value in the series with Apera spica-venti was 5 (Herbicidal ratio of 90% or more (almost completely withered)). For the same compound, in the series with Alopecurus myosuroides, the “J (Alopecurus myosuroides) herbicidal effect grade” value is recorded as 5 (Herbicidal ratio of 90% or more (almost completely withered)). In addition, the “N: Amaranthus retroflexus” value in the series on Amaranthus retroflexus is recorded as 0 (Herbicidal ratio of 5% or lower (almost no effect)). Further, the “d: soybean, effect on crop grade” value in the series on soybean was 0 (Herbicidal ratio of 5% or lower (almost no effect)). Moreover, the “R (Veronica persica) herbicidal effect grade” value in the series with Veronica persica [5] is recorded as 0 (Herbicidal ratio of 5% or lower (almost no effect)). Moreover, the “f: beet, effect on crop grade” value in the series on beet [6] was 0 (Herbicidal ratio of 5% or lower (almost no effect)). Also, the “M (Abutilon theophrasti) herbicidal effect grade” value with Abutilon theophrasti [7] is 0 (Herbicidal ratio of 5% or lower (almost no effect)). Moreover, the “herbicidal effect on H” value in series [8] was 4 (Herbicidal ratio of 70% or higher and lower than 90%). In addition, the “f (beet) effect on crop grade” value with beet [9] was 0 (Herbicidal ratio of 5% or lower (almost no effect)). In addition, in the series with Veronica persica [10], the “R: Veronica persica” value is listed as 0 (Herbicidal ratio of 5% or lower (almost no effect)). Besides, in the series on rice plant, the “b: directly sowed rice plant” value was 5 (Herbicidal ratio of 90% or more (almost completely withered)).

Consider `CON=C(C)CC1CC(OC(=O)C(C)(C)Oc2ccccc2Cl)=C(c2c(C)cc(C)cc2C)C1=O` (stereo not shown) [1-064], for which the “M: Abutilon theophrasti” value in the series with Abutilon theophrasti [1] was 4 (Herbicidal ratio of 70% or higher and lower than 90%). Also, the “F (Digitaria ciliaris) herbicidal effect grade” value in the series with Digitaria ciliaris [2] is 5 (Herbicidal ratio of 90% or more (almost completely withered)). For the same compound, the “F: Digitaria ciliaris” value with Digitaria ciliaris [3] is given as 5 (Herbicidal ratio of 90% or more (almost completely withered)). Besides, the “I (Avena fatua) herbicidal effect grade” value with Avena fatua is 3 (Herbicidal ratio of 40% or higher and lower than 70%). In addition, the “Herbicidal effect grade, A: Echinochloa oryzacola Vasing.” value in series [4] was 5 (Herbicidal ratio of 90% or more (almost completely withered)). Also, the “L: Apera spica-venti” value in the series with Apera spica-venti is reported as 5 (Herbicidal ratio of 90% or more (almost completely withered)). For the same compound, the “J (Alopecurus myosuroides) herbicidal effect grade” value in the series on Alopecurus myosuroides is on record as 5 (Herbicidal ratio of 90% or more (almost completely withered)). In the series on Amaranthus retroflexus, the “N: Amaranthus retroflexus” value was 2 (Herbicidal ratio of 20% or higher and lower than 40%). Also, the “d: soybean, effect on crop grade” value in the series on soybean is 4 (Herbicidal ratio of 70% or higher and lower than 90%). Moreover, in the series with Veronica persica [5], the “R (Veronica persica) herbicidal effect grade” value is recorded as 0 (Herbicidal ratio of 5% or lower (almost no effect)). Moreover, the “f: beet, effect on crop grade” value in the series with beet [6] was 1 (Herbicidal ratio of 5% or higher and lower than 20%). In the series on Abutilon theophrasti [7], the “M (Abutilon theophrasti) herbicidal effect grade” value was 3 (Herbicidal ratio of 40% or higher and lower than 70%). Further, the “herbicidal effect on H” value in [8] is on record as 5 (Herbicidal ratio of 90% or more (almost completely withered)). In the series on beet [9], the “f (beet) effect on crop grade” value is given as 0 (Herbicidal ratio of 5% or lower (almost no effect)). Besides, the “R: Veronica persica” value in the series on Veronica persica [10] was 3 (Herbicidal ratio of 40% or higher and lower than 70%). Moreover, in the series with rice plant, the “b: directly sowed rice plant” value is reported as 5 (Herbicidal ratio of 90% or more (almost completely withered)).
